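Tested at 5 concentrations; 48 h exposure; 96-well plates; endpoints linearly interpolated, else capped at highest concentration. TGI: total growth inhibition.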
Columns and labels:
Test in all cases: NCI-60 cell line screen, 48 h
[1] = test system: HL-60(TB) leukemia
[2] = test system: UACC-257 melanoma
[3] = test system: SF-295 CNS
[4] = test system: LOX IMVI melanoma
[5] = test system: OVCAR-3 ovarian
[6] = test system: MDA-N
[7] = test system: RXF 393 renal
[8] = test system: HCT-116 colon
[9] = test system: PC-3 prostate
[10] = test system: SW-620 colon
[11] = test system: OVCAR-4 ovarian
[12] = test system: SK-OV-3 ovarian
[13] = test system: NCI/ADR-RES ovarian
[14] = test system: SK-MEL-2 melanoma
[15] = test system: TK-10 renal
[16] = test system: A498 renal
[17] = test system: MDA-MB-231 breast
[18] = test system: SF-539 CNS
[19] = test system: CCRF-CEM leukemia
[20] = test system: DU-145 prostate

| Compound | TGI [1] [µM] | TGI [2] [µM] | TGI [3] [µM] | TGI [4] [µM] | TGI [5] [µM] | TGI [6] [µM] | TGI [7] [µM] | TGI [8] [µM] | TGI [9] [µM] | TGI [10] [µM] | TGI [11] [µM] | TGI [12] [µM] | TGI [13] [µM] | TGI [14] [µM] | TGI [15] [µM] | TGI [16] [µM] | TGI [17] [µM] | TGI [18] [µM] | TGI [19] [µM] | TGI [20] [µM] |
| --- | --- | --- | --- | --- | --- | --- | --- | --- | --- | --- | --- | --- | --- | --- | --- | --- | --- | --- | --- | --- |
| CNC(=S)NNC1=NCCCN1 | > 100 | > 100 | > 100 | > 100 | > 100 | > 100 | > 100 | > 100 | > 100 | > 100 | > 100 | > 100 | > 100 | > 100 | > 100 | > 100 | > 100 | > 100 | > 100 | – |
| NC(=S)SC1=NNC2(C(=O)N1)c1ccccc1-c1ccccc12 | > 10 | > 10 | > 10 | > 10 | – | > 10 | > 10 | > 10 | > 10 | > 10 | > 10 | > 10 | > 10 | – | > 10 | – | > 10 | > 10 | > 10 | > 10 |
| C[C@]1(O)CC(=O)c2c(c(-c3ccc4cc5c(c(O)c4c3O)C(=O)C[C@@](C)(O)C5)c3cccc(O)c3c2O)C1 | – | 30.8 | 18.6 | 26.6 | 17.2 | 19.4 | 17.8 | 79.7 | 13.2 | 47 | 21.1 | 24.4 | 25.4 | 6.22 | 28 | 16.4 | 19.3 | 6.45 | > 100 | 29 |
| Cn1ccnc1SC(F)(F)c1nc2ccccc2o1 | – | > 100 | > 100 | – | > 100 | > 100 | > 100 | > 100 | > 100 | > 100 | > 100 | > 100 | > 100 | > 100 | > 100 | > 100 | > 100 | > 100 | > 100 | > 100 |
| COc1cccc(N=N/C(=N/NC(=O)c2cc(Cl)ccc2O)c2ccc(N(CCC#N)CCC#N)cc2C)c1 | – | 59.5 | > 100 | – | 6.48 | > 100 | > 100 | > 100 | > 100 | – | > 100 | > 100 | > 100 | > 100 | > 100 | > 100 | > 100 | > 100 | > 100 | > 100 |
| CN(C)S(=O)(=O)n1ccnc1 | – | > 100 | > 100 | > 100 | > 100 | > 100 | > 100 | > 100 | > 100 | > 100 | > 100 | > 100 | > 100 | > 100 | > 100 | > 100 | > 100 | > 100 | – | – |
| CCN(CC)CCC(=O)c1ccc(Oc2ccc(C)cc2)cc1 | – | 34.4 | 36.4 | 31 | 32.4 | 31.5 | 30.2 | 31.2 | 38.2 | 33.8 | 55.3 | 88.7 | 51.2 | > 100 | 32.5 | – | 31 | 33.1 | 89.7 | 95.3 |
| CC(C)=C1C(=O)C[C@]2(C)C/C=C(\C)CC/C=C(\C)CC[C@@H]12 | – | 25.4 | 31.3 | – | 18.1 | – | 15.2 | 15.9 | > 50 | 17.3 | 45.6 | > 50 | 14.8 | 15.8 | 22.2 | 47.9 | 15.4 | 15.8 | 19.5 | > 50 |
| O=C(O)C(F)(OC(F)(F)C(F)(F)C(F)(F)F)C(F)(F)F (centres undefined) | > 100 | > 100 | > 100 | > 100 | > 100 | – | > 100 | > 100 | > 100 | > 100 | > 100 | > 100 | > 100 | > 100 | > 100 | > 100 | > 100 | > 100 | – | > 100 |
| C/C(=N\N=C(\N)OB(F)F)c1ccccn1 | > 100 | > 100 | > 100 | > 100 | > 100 | > 100 | 42.6 | > 100 | – | > 100 | > 100 | – | > 100 | > 100 | > 100 | > 100 | > 100 | > 100 | 73.1 | > 100 |
| CCOC(=O)CC/C(C)=N\n1c(Cc2ccc(Cl)cc2)n[nH]c1=O | > 100 | > 100 | > 100 | > 100 | > 100 | > 100 | > 100 | > 100 | > 100 | > 100 | – | – | > 100 | > 100 | > 100 | – | > 100 | > 100 | – | > 100 |

From PubChem BioAssay (NCI)
